Consider 8 molecules from patent US11541056B2, “3-hydroxy-N-(3-(7H-pyrrolo[2,3-d]pyrimidin-4-yl)phenyl)pyrrolidine-1-carboxamide derivatives” (NOVARTIS AG, priority 2018, dated 2023).

Some results are limits rather than exact numbers.

One assay deals with OCI-LY3 cells. Kind of assay: Resazurin cell viability assay in DLBCL cells (OCI-LY3). Type of assay: cell-based. To be noted: Homo sapiens, OCI-Ly3, 72 h, OCI-LY3 cells (BTK independent), 50% growth inhibition, read-out: OCI-LY3 Prol GI50. As to the method:
(§1) Compounds of the invention were tested in the following cellular assays. The terms in Table 1 are defined as follows: DC50 refers to the concentration at which 50% maximal degradation was observed; deg Amax is the extent of degradation and the value refers to the % protein remaining at the concentration at which maximum degradation is seen; Prol GI50 refers to the proliferation data and defines the concentration at which 50% growth inhibition was observed compared to the vehicle treated control at the end of the incubation time. TMD8 cells are BTK dependent and OCI-LY3 cells are BTK independent.
Cell Viability Assay in DLBCL (Diffuse Large B-Cell Lymphoma) Cells:
The effect of the BTK compounds on cell proliferation was measured by a Resazurin (Sigma, #R7017) based cell viability assay. TMD8 (BTK compound sensitive) and OCI-LY3 (BTK compound insensitive) cells were incubated for 72 h at 37° C. and 5% CO2 with the corresponding compound. Resazurin is a non-toxic, cell-permeable substrate that is virtually non-fluorescent. Upon entering living cells, Resazurin (Sigma, #R7017) is reduced to highly fluorescent Resorufin. The metabolic activity was assessed by measuring the fluorescence signal (ex. 530 nm; em. 600 nm).
TMD8 and OCI-Ly3 cells were seeded at day 0 in triplicates at a cell density of 1×10^4 cells per 150 μl/well in a 96-well plate (Costar #3904). Additional plates were prepared, in order to assess the basal metabolic activity of both cell lines at the beginning of the experiment. For these reference plates, Resazurin (Sigma, #R7017) was added to a final concentration of 13 μg/ml 3 h post seeding and was incubated for 2 h at 37° C. and 5% CO2. Following incubation, the fluorescent signal intensity of the 96-well plates was measured on a Mithras LB940 multimode plate reader at 530/600 nm (Berthold Technologies, Germany).
In parallel, 3 h post-seeding, test-plates were treated with compound at various concentrations, or with vehicle (DMSO) alone for 3 days. The compound addition to the plates was performed by using a HP D300 digital dispenser (TECAN, Switzerland). The compounds were tested in triplicate, 8-point serial dilution (1:4), with a start concentration of 10 μM for OCI-LY3 and 1 μM for the TMD8 cells, respectively. To assess the relative proliferation of the cells, Resazurin was added to each well directly to the medium to a final concentration of 13 μg/ml. The plates were incubated for 2 h at 37° C. and 5% CO2 to result in a 72 h endpoint. Following incubation, the fluorescent signal intensity of the 96-well plates were measured on a Mithras LB940 multimode plate reader at 530/600 nm (Berthold Technologies, Germany). The formation of Resorufin dye directly correlates with the number of metabolically active cells. For each triplicate treatment the mean and standard deviation were calculated and analyzed via curve fitting software to determine the respective compound concentration resulting in 50% growth inhibition (GI50) values. For each compound GI50 values were typically determined from at least 2 entirely independent experiments.
OCI-LY3 cells were acquired through a license agreement with University Health Network, Toronto, Canada. Cells are cultivated in RPMI1640 media (Gibco, #61870-010, lot. 1894759), supplemented with 10% FCS (HyClone, GE #SH30066.03, lot AB217603), 2 mM L-Glutamine (BioConcept, #5-10K50-H, lot. LA03467P), 1 mM Sodium Pyruvate (BioConcept, #5-60F00-H, lot. LB10510P), 10 mM HEPES (Gibco, #15630-056, lot. 1854074), 1% Pen/Strep (BioConcept, #4-01F00-H, lot. LB04235P).

Another assay has as its target T1, BTK-GFP (Homo sapiens, UniProt Q06187+Q96SW2).
T1 construct: the BTK open reading frame (ORF) was first shuttled from a pcDNA-DEST40-BTK vector (Invitrogen library ID INV_20090504v1); expressed in transfected cells; host or cells: HEK293A cells (Invitrogen R70507), lentiviral transduction with pLenti6-BTK-GFP-Ires-RFP, blasticidin-selected
In words: BTK-GFP protein abundance flow cytometry assay in HEK293A cells. Type of assay: cell-based. The settings on record: 24 h; for BTK deg Amax %: % protein remaining at concentration of maximum degradation; for DC50: concentration at which 50% maximal degradation was observed. As to the method: as §1
BTK-GFP and IKZF3-GFP Protein Abundance Flow Cytometry Assay in HEK293A Cells:
Degradation of BTK or IKZF3 was measured in HEK293A cells (Invitrogen R70507) expressing either BTK-GFP and RFP or IKZF3-GFP and RFP from a stably integrated bicistronic BTK-GFP-iresRFP or IKZF3-GFP-iresRFP construct, respectively. Reduction of the GFP signal measured by flow cytometry served as readout for BTK or IKZF3 degradation after degrader treatment.
Stable HEK293A-BTK-GFP-iresRFP cells were maintained in complete growth medium (DMEM high Glucose+10% FCS+1% L-Glutamine+1% NEAA+1% NaPyr.) with passaging performed twice per week. On Day 0, HEK293A-BTK-GFP-iresRFP or HEK293A-IKZF3-GFP-iresRFP and HEK293A-iresRFP cells were seeded at 10,000 cells/well in a 96-well microtiter plate in 260 μl complete medium. On Day 1, cells were treated in duplicate with 10-point 1:3 dilution series of compound using the HP D300 Digital Dispenser (Tecan). DMSO concentrations were normalized across the plate to 0.1%. On Day 2, after 24 h of incubation at 37° C., treatment media was discarded, cells rinsed with 100 ul/well PBS and then detached using 40 ul trypsin/well for 5 min. Trypsin was neutralized with 100 ul/well PBS+20% FCS). Flow cytometry was performed on the samples using the BD FACS CANTO II (Becton Dickinson). Cell identification was then performed using forward (FSC) vs. side scatter (SSC) plots. Single cell discrimination is performed using SSC-Width (SSC-W) vs. SSC-Height (SSC-H) plots. Median GFP values for 5,000 single cells are used to determine BTK levels. Median GFP values from HEK293A-iresRFP are used as a background signal and thus defining 0% BTK signal. Median GFP values from DMSO treated HEK293A-BTK-GFP-iresRFP or HEK293A-IKZF3-GFP-iresRFP are used to define 100% BTK signal for subsequent DC50 curves (concentration at 50% BTK degradation). GFP and RFP are read in the channels called FITC and PE, respectively.
Concentration response curves plotting relative reduction of the GFP signal (measured by flow cytometry) versus 10 compound concentrations (starting concentration 10 μM, 3 fold dilution steps) of the compounds allowed generation of DC50 values.

T1 sequence (Q06187 whole entry): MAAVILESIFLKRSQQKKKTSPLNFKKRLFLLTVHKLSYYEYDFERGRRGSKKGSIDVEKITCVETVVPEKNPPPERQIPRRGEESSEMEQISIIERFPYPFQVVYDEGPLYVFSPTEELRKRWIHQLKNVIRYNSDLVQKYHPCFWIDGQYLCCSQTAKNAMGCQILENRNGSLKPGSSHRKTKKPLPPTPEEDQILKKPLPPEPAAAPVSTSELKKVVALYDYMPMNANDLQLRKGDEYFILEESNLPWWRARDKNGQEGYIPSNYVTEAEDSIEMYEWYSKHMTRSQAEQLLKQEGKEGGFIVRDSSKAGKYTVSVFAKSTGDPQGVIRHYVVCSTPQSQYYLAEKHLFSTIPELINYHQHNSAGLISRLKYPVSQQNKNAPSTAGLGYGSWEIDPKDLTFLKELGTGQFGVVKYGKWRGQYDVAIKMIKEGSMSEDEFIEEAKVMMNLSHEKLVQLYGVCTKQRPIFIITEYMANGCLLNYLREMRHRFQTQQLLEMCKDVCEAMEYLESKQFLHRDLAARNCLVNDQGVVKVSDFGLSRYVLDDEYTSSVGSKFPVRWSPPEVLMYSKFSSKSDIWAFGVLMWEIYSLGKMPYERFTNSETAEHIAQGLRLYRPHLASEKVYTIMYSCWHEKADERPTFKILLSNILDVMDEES
T1 sequence (Q96SW2 whole entry): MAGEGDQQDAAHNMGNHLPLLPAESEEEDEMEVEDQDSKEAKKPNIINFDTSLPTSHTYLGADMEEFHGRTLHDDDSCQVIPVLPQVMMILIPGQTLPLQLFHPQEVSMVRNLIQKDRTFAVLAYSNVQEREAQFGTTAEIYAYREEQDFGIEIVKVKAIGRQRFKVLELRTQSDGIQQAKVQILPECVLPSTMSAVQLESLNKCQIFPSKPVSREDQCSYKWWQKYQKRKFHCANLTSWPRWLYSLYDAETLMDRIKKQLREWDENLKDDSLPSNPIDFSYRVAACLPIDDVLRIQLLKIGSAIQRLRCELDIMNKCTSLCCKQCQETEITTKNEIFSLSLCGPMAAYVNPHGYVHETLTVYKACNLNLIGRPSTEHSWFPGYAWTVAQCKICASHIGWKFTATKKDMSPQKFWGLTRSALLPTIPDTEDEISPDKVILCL
T1 sequence (Q16531 whole entry partner): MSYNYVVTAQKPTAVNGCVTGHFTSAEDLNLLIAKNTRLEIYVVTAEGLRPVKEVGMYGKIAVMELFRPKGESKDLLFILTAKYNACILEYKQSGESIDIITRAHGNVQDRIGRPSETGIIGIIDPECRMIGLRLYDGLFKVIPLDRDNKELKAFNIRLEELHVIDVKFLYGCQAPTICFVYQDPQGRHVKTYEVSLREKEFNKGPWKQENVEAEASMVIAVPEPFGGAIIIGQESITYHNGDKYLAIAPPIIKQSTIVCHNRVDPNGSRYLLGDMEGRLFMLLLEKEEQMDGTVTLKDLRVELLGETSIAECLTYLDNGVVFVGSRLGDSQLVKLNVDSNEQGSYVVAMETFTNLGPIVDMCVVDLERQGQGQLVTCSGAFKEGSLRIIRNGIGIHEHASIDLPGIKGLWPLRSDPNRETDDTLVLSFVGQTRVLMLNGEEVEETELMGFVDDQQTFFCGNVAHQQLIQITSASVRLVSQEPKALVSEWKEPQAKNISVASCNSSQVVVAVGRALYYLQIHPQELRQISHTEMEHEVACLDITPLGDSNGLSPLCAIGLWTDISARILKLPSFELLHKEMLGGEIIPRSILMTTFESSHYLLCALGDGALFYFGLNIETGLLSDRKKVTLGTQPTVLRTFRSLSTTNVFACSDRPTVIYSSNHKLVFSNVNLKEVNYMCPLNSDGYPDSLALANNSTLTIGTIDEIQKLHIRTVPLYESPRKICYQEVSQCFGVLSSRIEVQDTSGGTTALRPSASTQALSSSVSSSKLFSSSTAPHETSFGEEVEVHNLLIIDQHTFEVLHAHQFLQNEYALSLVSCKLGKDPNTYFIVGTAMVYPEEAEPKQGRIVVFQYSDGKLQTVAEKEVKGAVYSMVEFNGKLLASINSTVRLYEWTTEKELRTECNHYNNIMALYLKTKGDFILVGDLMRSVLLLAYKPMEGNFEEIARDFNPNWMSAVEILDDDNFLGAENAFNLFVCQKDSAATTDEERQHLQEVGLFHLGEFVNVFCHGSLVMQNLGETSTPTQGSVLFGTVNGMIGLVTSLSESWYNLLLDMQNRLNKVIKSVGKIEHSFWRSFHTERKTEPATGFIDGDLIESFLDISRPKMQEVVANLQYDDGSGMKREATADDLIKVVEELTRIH

Turning to `COc1ccc(C(=O)N2CCC3(CCN(Cc4ccc(-c5cc6c(-c7cc(F)cc(NC(=O)N8C[C@@H](CC(C)C)[C@H](O)C8)c7C)ncnc6[nH]5)cc4)CC3)CC2)cc1N1CCC(=O)NC1=O` (racemic) [Compound 5, trans-rac-N-(3-(6-(4-((9-(3-(2,4-Dioxotetrahydropyrimidin-1(2H)-yl)-4-methoxybenzoyl)-3,9-diazaspiro[5.5]undecan-3-yl)methyl)phenyl)-7H-pyrrolo[2,3-d]pyrimidin-4-yl)-5-fluoro-2-methylphenyl)-3-hydroxy-4-isobutylpyrrolidine-1-carboxamide], the GI50 in the assay with OCI-LY3 cells worked out at 7460 nM. At BTK-GFP, the “BTK deg Amax %” value is 4% and half-maximal degradation (DC50) was put at 4.9 nM.

For the molecule `COc1ccc(C(=O)N2CCC3(CCN(Cc4ccc(-c5cc6c(-c7cc(F)cc(NC(=O)N8C[C@@H](CC(C)C)[C@H](O)C8)c7C)ncnc6[nH]5)cc4)CC3)CC2)cc1N1CCC(=O)NC1=O` [Compound 1, (3S,4R)—N-(3-(6-(4-((9-(3-(2,4-Dioxotetrahydropyrimidin-1(2H)-yl)-4-methoxybenzoyl)-3,9-diazaspiro[5.5]undecan-3-yl)methyl)phenyl)-7H-pyrrolo[2,3-d]pyrimidin-4-yl)-5-fluoro-2-methylphenyl)-3-hydroxy-4-isobutylpyrrolidine-1-carboxamide], the GI50 in the assay with OCI-LY3 cells was 7120 nM. On BTK-GFP, the “BTK deg Amax %” value turned out to be 15% and the DC50 came out at 164 nM.

As for `COc1ccc(C(=O)N2CCC(OCCN3CCN(Cc4ccc(-c5cc6c(-c7cc(F)cc(NC(=O)N8C[C@H](CC(C)C)[C@@H](O)C8)c7C)ncnc6[nH]5)cc4)CC3)CC2)cc1N1CCC(=O)NC1=O` [Compound 2, (3R,4S)—N-(3-(6-(4-((4-(2-((1-(3-(2,4-Dioxotetrahydropyrimidin-1 (2H)-yl)-4-methoxybenzoyl)piperidin-4-yl)oxy)ethyl)piperazin-1-yl)methyl)phenyl)-7H-pyrrolo[2,3-d]pyrimidin-4-yl)-5-fluoro-2-methylphenyl)-3-hydroxy-4-isobutylpyrrolidine-1-carboxamide], in the assay with OCI-LY3 cells, the GI50 amounted to 7730 nM. In addition, on BTK-GFP, the “BTK deg Amax %” value turned out to be 2% and it took 1.4 nM to reach half-maximal degradation (DC50).

Turning to `COc1ccc(C(=O)N2CCC3(CCN(Cc4ccc(-c5cc6c(-c7cc(F)cc(NC(=O)N8C[C@H](CC(C)C)[C@@H](O)C8)c7C)ncnc6[nH]5)cc4)CC3)CC2)cc1N1CCC(=O)NC1=O` [Compound 6, (3R,4S)—N-(3-(6-(4-((9-(3-(2,4-Dioxotetrahydropyrimidin-1(2H)-yl)-4-methoxybenzoyl)-3,9-diazaspiro[5.5]undecan-3-yl)methyl)phenyl)-7H-pyrrolo[2,3-d]pyrimidin-4-yl)-5-fluoro-2-methylphenyl)-3-hydroxy-4-isobutylpyrrolidine-1-carboxamide], in the assay with OCI-LY3 cells, the GI50 stood at 9920 nM. Also, on BTK-GFP, the “BTK deg Amax %” value amounted to 6.2% and half-maximal degradation (DC50) was put at 3.4 nM.

As for `COc1ccc(C(=O)N2CCC(OC3CCN(Cc4ccc(-c5cc6c(-c7cc(F)cc(NC(=O)N8C[C@H](CC(C)C)[C@@H](O)C8)c7C)ncnc6[nH]5)cc4)CC3)CC2)cc1N1CCC(=O)NC1=O` [Compound 8, (3R,4S)—N-(3-(6-(4-((4-((1-(3-(2,4-Dioxotetrahydropyrimidin-1(2H)-yl)-4-methoxybenzoyl)piperidin-4-yl)oxy)piperidin-1-yl)methyl)phenyl)-7H-pyrrolo[2,3-d]pyrimidin-4-yl)-5-fluoro-2-methylphenyl)-3-hydroxy-4-isobutylpyrrolidine-1-carboxamide], the GI50 in the assay on OCI-LY3 cells was over 10000 nM. At BTK-GFP, the “BTK deg Amax %” value is listed as 4.5% and the DC50 is 1 nM.

On to `COc1ccc(C(=O)N2CCC(CN3CCC(Oc4ccc(-c5cc6c(-c7cc(F)cc(NC(=O)N8C[C@H](CC(C)C)[C@@H](O)C8)c7C)ncnc6[nH]5)cc4)CC3)CC2)cc1N1CCC(=O)NC1=O` [Compound 11, (3R,4S)—N-(3-(6-(4-((1-((1-(3-(2,4-Dioxotetrahydropyrimidin-1 (2H)-yl)-4-methoxybenzoyl)piperidin-4-yl)methyl)piperidin-4-yl)oxy)phenyl)-7H-pyrrolo[2,3-d]pyrimidin-4-yl)-5-fluoro-2-methylphenyl)-3-hydroxy-4-isobutylpyrrolidine-1-carboxamide], for which, in the assay on OCI-LY3 cells, the GI50 came out at 3510 nM. On BTK-GFP, the “BTK deg Amax %” value came out at 2.3% and the DC50 came out at 0.6 nM.

As for `COc1ccc(C(=O)N2CCC(CN3CCN(Cc4ccc(-c5cc6c(-c7cc(F)cc(NC(=O)N8C[C@H](CC(C)C)[C@@H](O)C8)c7C)ncnc6[nH]5)cc4)CC3)CC2)cc1N1CCC(=O)NC1=O` [Compound 12, (3R,4S)—N-(3-(6-(4-((4-((1-(3-(2,4-Dioxotetrahydropyrimidin-1(2H)-yl)-4-methoxybenzoyl)piperidin-4-yl)methyl)piperazin-1-yl)methyl)phenyl)-7H-pyrrolo[2,3-d]pyrimidin-4-yl)-5-fluoro-2-methylphenyl)-3-hydroxy-4-isobutylpyrrolidine-1-carboxamide], the GI50 with OCI-LY3 cells was over 10000 nM. For the same molecule, at BTK-GFP, the “BTK deg Amax %” value turned out to be 4.3% and half-maximal degradation (DC50) was put at 0.7 nM.

Consider `COc1ccc(C(=O)N2CCC(OC3CCN(CCc4ccc(-c5cc6c(-c7cc(F)cc(NC(=O)N8C[C@H](CC(C)C)[C@@H](O)C8)c7C)ncnc6[nH]5)cc4)CC3)CC2)cc1N1CCC(=O)NC1=O` [Compound 13, (3R,4S)—N-(3-(6-(4-(2-(4-((1-(3-(2,4-Dioxotetrahydropyrimidin-1(2H)-yl)-4-methoxybenzoyl)piperidin-4-yl)oxy)piperidin-1-yl)ethyl)phenyl)-7H-pyrrolo[2,3-d]pyrimidin-4-yl)-5-fluoro-2-methylphenyl)-3-hydroxy-4-isobutylpyrrolidine-1-carboxamide], for which, in the assay with OCI-LY3 cells, the 50% growth inhibitory concentration (GI50) was found to be 9220 nM. Also, at BTK-GFP, the “BTK deg Amax %” value is recorded as 2.9% and the DC50 came to 0.5 nM.
